The source made the active and inactive calls.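 How the source made its calls: active means Compounds that kill half the cells at a concentration of 5 micromolar or below, from the fitted or estimated CC50; inactive means CC50 above 5 micromolar.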

The assay deals with Jurkat E6.1 viability, ATP luminescence, 48 h. Description: viability loss in Jurkat T cells – cell-based, ATP luminescence, 48 h, 60K MLSMR, cytotoxicity control, dose response (AID 464).
Broadly, the CC50 is the concentration that lowers cell viability or growth by half. As to `CCOC(=O)N1CCN(c2c(NCc3cccs3)c(=O)c2=O)CC1`, the CC50 is 5790 nM (inactive). Consider `Cc1ccc(C(=O)N2CCN(c3cccc(Cl)c3)CC2)cc1C`, for which the CC50 is 19100 nM (inactive). To `CC(C)(C)n1ncc2c(=O)n(CC(=O)NCc3ccc(F)cc3)cnc21` belongs 5130 nM (inactive); to `CCOc1ccc(-c2[nH]ncc2-c2ccc(OC)c(OC)c2)c(O)c1`, 1210 nM; to `CC1=C(C(=O)OCc2ccc3c(c2)OCO3)C(c2ccc(Cl)cc2)NC(=O)N1` (stereo not drawn), 12600 nM (inactive). Consider `O=C(CCc1ccccc1)Nc1ccc(Cl)cn1`, for which the CC50 is 2150 nM. `O=S(=O)(C/C(=C/CO)S(=O)(=O)c1ccccc1)c1ccccc1`: the CC50 is 2200 nM. In the case of `CCCCN(CC)S(=O)(=O)c1ccc(C(=O)Nc2nnc(CSC)o2)cc1` it was 37600 nM (inactive); in that of `COc1cccc2sc(Nc3nc(-c4ccccn4)cs3)nc12`, 2810 nM; in that of `COc1cccc(-c2cc(C(=O)Nc3cccc(O)c3)no2)c1`, > 40000 nM (inactive). To `COc1ccc(-c2nnc(NC(=O)c3ccc(S(=O)(=O)N4COCC4(C)C)cc3)o2)cc1` belongs 22700 nM (inactive).

Regarding `COc1cc(NS(=O)(=O)c2ccc(NC(C)=O)cc2)cc(OC)c1`, the CC50 was 14800 nM (inactive).

In the case of `O=C1N/C(=C\c2ccccc2)c2ccccc21`, the CC50 was > 4400 nM (inactive). As to `COc1ccc(-c2cc(N)n(S(=O)(=O)c3c(F)c(F)c(F)c(F)c3F)n2)cc1OC`, the CC50 was 2010 nM.

For `CCOc1cccc(-n2nnnc2-c2ccc(OC)cc2)c1`, the CC50 was 1060 nM. In the case of `CC(=O)C(C(C)=O)c1c(Cl)c(O)c(O)c2c(C(=O)c3ccccc3)coc12`, the CC50 is 8760 nM (inactive). To `C=CS(=O)(=O)c1ccc(Oc2ccc(S(=O)(=O)C=C)cc2)cc1` belongs 1900 nM.

Turning to `CCOC(=O)c1c(COc2ccccc2)oc2ccc(O)cc12`, the CC50 is > 40000 nM (inactive). To `Cn1cc(/C=N/n2cnc3scc(-c4ccc(Cl)cc4)c3c2=O)c2ccccc21` belongs 373 nM; to `CCn1ncc(C2=NOC(C(=O)NCc3ccc(Cl)cc3)C2)c1C` (stereo not drawn), 1610 nM; to `CS(=O)(=O)N1CCc2cc(-c3csc(NC(=O)Cc4cccs4)n3)ccc21`, 19100 nM (inactive). With `Cc1cc(C)nc(NC(=O)Nc2ccccc2C(F)(F)F)n1`, the CC50 is > 4400 nM (inactive). For the compound `O=C(CCn1c(=O)oc2ccccc21)N1CCN(c2ccccc2Cl)CC1`, the CC50 is 5770 nM (inactive). `Clc1ccc(Cn2ncc3c(NCc4ccco4)ncnc32)c(Cl)c1`: the CC50 is 3800 nM.

Regarding `O=C(Nc1ccc(SC(F)F)cc1)c1ccc2nccnc2c1`, the CC50 was 13100 nM (inactive). Consider `CCN(CC)c1ccc(-c2nn3c(-c4ccccc4OC)nnc3s2)cc1`, for which the CC50 was 115 nM. In the case of `CS(=O)(=O)N1CCc2cc(S(=O)(=O)Nc3ccc4c(c3)OCCO4)ccc21` it was 29100 nM (inactive); in that of `Cc1cc(=O)oc2cc(OCC(=O)N3c4ccccc4CC3C)ccc12` (stereo not drawn), 756 nM; in that of `CCN(CC)c1ccc(-c2nn3c(-c4n[nH]c5c4CCC5)nnc3s2)cc1`, 895 nM. Regarding `O=C(c1cccc(F)c1)N1CCN(c2cccc(Cl)c2)CC1`, the CC50 is 4550 nM.

On to `Cc1cc(NC(=O)CCCS(=O)(=O)c2nc(-c3cccs3)cc(C(F)(F)F)n2)no1`, for which the CC50 is 2000 nM.

Turning to `O=C(NC1CC1)c1cc2c(s1)-c1ccccc1OC2`, the CC50 was 15600 nM (inactive).

In the case of `CCOc1ccccc1C1CC(=O)NC2=C1C(=O)CCC2` (stereo not drawn), the CC50 is 3600 nM. `O=C(NCc1cccs1)C1CCN(c2ccc(S(=O)(=O)N3CCOCC3)cc2Cl)CC1`: the CC50 was 875 nM. Turning to `CCn1c(SCC(=O)c2c[nH]c3ccccc23)nnc1-c1cccs1`, the CC50 was 8260 nM (inactive). Take `Cc1onc(-c2ccccc2)c1C(=O)Nc1sc2c(c1C#N)CCC2`: the CC50 is 15000 nM (inactive).

Regarding `On1onc2c3cc(-c4ccccc4)nc3ccc21`, the CC50 is 3900 nM.

Consider `COc1cc(C(=O)N2CCN(c3cccc(C)c3C)CC2)cc(OC)c1OC`, for which the CC50 is 370 nM. To `CCOC(=O)c1c(C)c(C(=O)Nc2cc(F)ccc2F)c(C)n1C` belongs 6520 nM (inactive); to `COc1cccc(C(=O)/C=C/Nc2cc(C)ccc2O)c1`, 2950 nM; to `O=C(CSC1=NCCS1)Nc1ccnc2ccccc12`, > 40000 nM (inactive). In the case of `CCOc1ccc(-c2cc(CCCC(=O)Nc3cccc(OC)c3)no2)cc1` it was 809 nM; in that of `CCOC(=O)c1ccccc1NC(=O)Cn1c(-c2nonc2N)nc2ccccc21`, 296 nM.

As for `Clc1ccc(-n2nnnc2Sc2ncnc3sccc23)cc1`, the CC50 was > 13000 nM (inactive). In the case of `O=C(Cc1ccc(-n2cccc2)cc1)NCc1cccs1` it was 513 nM. To `C=CCN1C(=Nc2cccnc2)SCC1(O)c1ccc(C)cc1` (stereo not drawn) belongs 17900 nM (inactive).

Consider `COc1ccc(NS(=O)(=O)c2ccc(NC(C)=O)cc2)cc1OC`, for which the CC50 is 17700 nM (inactive).

As for `Fc1ccc(Br)cc1C1C=C(c2cccnc2)Nc2ncnn21` (stereo not drawn), the CC50 was 8760 nM (inactive).

With `CCOC(=O)C(C)Oc1cccc2c(=O)n(CC(=O)NCc3ccc4c(c3)OCO4)ccc12` (stereo not drawn), the half-maximal cytotoxic concentration (CC50) is 3900 nM. To `COc1ccc(CCNc2nnc(Sc3nnnn3-c3ccccc3)s2)cc1OC` belongs 875 nM. `CCCCN(C)S(=O)(=O)c1ccc(C(=O)Nc2nnc(CSC)o2)cc1`: the CC50 is 27900 nM (inactive). With `CCCc1ccc(-c2ccc(F)c(N)c2)nc1`, the CC50 is > 40000 nM (inactive). To `COc1ccc(S(=O)(=O)Cc2ccc(C(=O)N3CCN(c4cccc(C)c4)C(C)C3)o2)cc1` (stereo not drawn) belongs 1600 nM. Consider `CCOC(=O)CSC1=C(C#N)C(c2ccc(C)s2)CC(=O)N1` (stereo not drawn), for which the CC50 is 1560 nM.

As for `COCCCN(C(C)=O)c1nc(-c2ccc(OC)cc2)cs1`, the CC50 was > 4400 nM (inactive).

With `N=c1ccn(Cc2ccc(Cl)c(Cl)c2)cc1`, the CC50 is 10400 nM (inactive). For `CC(C)Cn1c(N)c(C(=O)CSc2ccc3c(c2)OCCO3)c(=O)n(C)c1=O`, the CC50 is > 40000 nM (inactive). Take `COc1ccc(CCNc2c(C)c(C)nc3ncnn23)cc1`: the CC50 is > 13000 nM (inactive).

As to `Cc1onc(-c2ccccc2)c1C(=O)Nc1cc(C(F)(F)F)ccc1N1CCOCC1`, the CC50 was 2150 nM. Consider `Cc1cc(C(=O)CSc2nnc(NCc3ccccc3)s2)c(C)n1C`, for which the CC50 was 12900 nM (inactive). In the case of `Cc1ccc(C2c3c(-c4ccccc4O)n[nH]c3C(=O)N2Cc2ccncc2)cc1` (stereo not drawn) it was 6790 nM (inactive). Regarding `CC1=C(C(=O)OCc2ccc3c(c2)OCO3)C(c2ccccc2)NC(=O)N1` (stereo not drawn), the CC50 is 17300 nM (inactive). As to `Cc1conc1NC(c1cccs1)c1ccc2cccnc2c1O` (stereo not drawn), the CC50 was > 13000 nM (inactive). With `Cc1cccc(Cn2c(NCCO)nc3c2c(=O)n(C)c(=O)n3C)c1`, the CC50 is 2320 nM.

On to `O=C(CCCc1nc(-c2ccc(Cl)cc2)no1)Nc1cccnc1`, for which the CC50 was 5560 nM (inactive).

For `CCOC(=O)c1[nH]c(C)c(C(=O)N2CCc3ccccc32)c1C`, the CC50 is 284 nM. As to `N#CC1=C(N)Oc2cc(N)ccc2C1C1CCCCC1` (stereo not drawn), the cytotoxic concentration (CC50) was 2490 nM. `CC1CCCCN1S(=O)(=O)c1ccc(C(=O)Nc2nnc(-c3cccs3)o2)cc1` (stereo not drawn): the CC50 was 13700 nM (inactive).

Values taken from PubChem BioAssay AID464 (The Scripps Research Institute Molecular Screening Center, 2006).
